Measured values from ChEMBL document CHEMBL3352621, “Pentapeptide boronic acid inhibitors of Mycobacterium tuberculosis MycP1 protease” (Bioorg Med Chem Lett, 2014).
Active and inactive are the calls of the source. Peptide text beside a SMILES is read from it. * marks the point of attachment. boroAla = C[C@H](N*)B(O)O

How the values were obtained:
[1] = tested on: Mycobacterium thermoresistibile
[2] = tested on: Mycobacterium tuberculosis
[3] = tested on: Mycolicibacterium smegmatis

Measured: inhibition

CC(C)[C@H](NC(=O)[C@H](C)N)C(=O)N[C@@H](CCCCN)C(=O)N[C@@H](C)C(=O)N[C@@H](C)B(O)O (H-AVKA-boroAla)
inactive: all assays above
